Reference: US8664257B2, “Oxygen-substituted 3-heteroaroylamino-propionic acid derivatives and their use as pharmaceuticals” (Sanofi, priority 2010, dated 2014)

Biological target: T1, Recombinant human cathepsin A (Homo sapiens, UniProt P10619)
T1 construct: Recombinant human cathepsin A (residues 29-480, with a C-terminal 10-His tag); 10-His (C); purchased R&D Systems 1049-SE
T1 sequence (P10619 29-312 limits assumed): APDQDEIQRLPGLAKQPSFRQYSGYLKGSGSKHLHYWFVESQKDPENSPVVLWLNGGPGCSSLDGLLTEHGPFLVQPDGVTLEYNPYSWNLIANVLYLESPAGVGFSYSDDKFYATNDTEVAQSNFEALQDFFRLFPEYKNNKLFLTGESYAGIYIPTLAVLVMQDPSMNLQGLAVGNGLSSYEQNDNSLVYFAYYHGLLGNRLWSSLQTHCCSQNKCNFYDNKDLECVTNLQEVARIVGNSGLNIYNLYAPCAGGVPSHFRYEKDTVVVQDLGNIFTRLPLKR
T1 sequence (P10619 327-480 limits assumed): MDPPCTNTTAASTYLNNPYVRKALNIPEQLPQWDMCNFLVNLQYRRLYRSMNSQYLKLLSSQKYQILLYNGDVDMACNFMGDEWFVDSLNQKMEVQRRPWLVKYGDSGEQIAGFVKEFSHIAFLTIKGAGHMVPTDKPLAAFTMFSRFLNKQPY
Assay: Cathepsin A inhibitory activity
Assay type: biochemical
Details: pharmacological test "Cathepsin A inhibitory activity"; IC50 given as class A/B/C; read-out: Activity (2): Cathepsin A inhibitory activity, IC50 class
Experimental: a) Cathepsin A Inhibitory Activity
Recombinant human cathepsin A (residues 29-480, with a C-terminal 10-His tag; R&D Systems, #1049-SE) was proteolytically activated with recombinant human cathepsin L (R&D Systems, #952-CY). Briefly, cathepsin A was incubated at 10 μg/ml with cathepsin L at 1 μg/ml in activation buffer (25 mM 2-(morpholin-4-yl)-ethanesulfonic acid (MES), pH 6.0, containing 5 mM dithiothreitol (DTT)) for 15 min at 37° C. Cathepsin L activity was then stopped by the addition of the cysteine protease inhibitor E-64 (N-(trans-epoxysuccinyl)-L-leucine-4-guanidinobutylamide; Sigma-Aldrich, #E3132; dissolved in activation buffer/DMSO) to a final concentration of 10 μM.
The activated cathepsin A was diluted in assay buffer (25 mM MES, pH 5.5, containing 5 mM DTT) and mixed with the test compound (dissolved in assay buffer containing (v/v) 3% DMSO) or, in the control experiments, with the vehicle in a multiple assay plate. After incubation for 15 min at room temperature, as substrate then bradykinin carrying an N-terminal®Bodipy FL (4,4-difluoro-5,7-dimethyl-4-bora-3a,4a-diaza-s-indacene-3-propionyl) label (JPT Peptide Technologies GmbH; dissolved in assay buffer) was added to the mixture. The final concentration of cathepsin A was 833 ng/ml and the final concentration of labeled bradykinin 2 μM. After incubation for 15 min at room temperature the reaction was stopped by the addition of stop buffer (130 mM 2-(4-(2-hydroxy-ethyl)-piperazin-1-yl)-ethanesulfonic acid, pH 7.4, containing (v/v) 0.013% Triton X-100, 0.13% Coating Reagent 3 (Caliper Life Sciences), 6.5% DMSO and 20 μM ebelactone B (Sigma, # E0886)).
Uncleaved substrate and product were then separated by a microfluidic capillary electrophoresis on a LabChip® 3000 Drug Discovery System (12-Sipper-Chip; Caliper Life Sciences) and quantified by determination of the respective peak areas. Substrate turnover was calculated by dividing product peak area by the sum of substrate and product peak areas, and the enzyme activity and the inhibitory effect of the test compound thus quantified. From the percentage of inhibition of cathepsin A activity observed with the test compound at several concentrations, the inhibitory concentration IC50, i.e. the concentration which effects 50% inhibition of enzyme activity was, calculated.

SMILES	IC50 [nM]
COc1ccccc1[C@@H](NC(=O)c1cc(O)n(-c2ccc(F)cc2F)n1)[C@@H](O)C(=O)O [Example 188]	1000 to 30000
COc1cccc([C@H](CC(=O)O)NC(=O)c2cc(O)n(-c3ccc(F)cc3F)n2)c1 [Example 182]	100 to 1000
Cc1cccc(C(CC(=O)O)NC(=O)c2cc(O)n(-c3ccccc3Cl)n2)c1C (stereo not shown) [Example 220]	100 to 1000
O=C(O)CC(NC(=O)c1cc(O)n(-c2ccccc2Cl)n1)c1ccc(OC(F)(F)F)cc1 (stereo not shown) [Example 215]	100 to 1000

Same assay, conditions: read-out: Activity (2): Cathepsin A inhibitory activity (IC50 class)

SMILES	IC50 [nM]
Cc1ccccc1[C@H](CC(=O)O)NC(=O)c1cc(OC[C@@H](O)C2CC2)n(-c2ccccc2F)n1 (single isomer, unassigned) [Example 761]	< 100
Cc1ccccc1[C@H](CC(=O)O)NC(=O)c1cc(OC[C@H](O)C(C)(C)C)n(-c2ccccc2F)n1 (single isomer, unassigned) [Example 745]	< 100
CCOc1cc(C(=O)N[C@@H](CC(=O)O)c2ccc(C)cc2)nn1-c1ccccc1Cl [Example 736]	< 100
Cc1ccccc1[C@H](CC(=O)O)NC(=O)c1cc(OCC(=O)N2CCCC2)n(-c2ccccc2F)n1 [Example 616]	< 100
Cc1ccccc1[C@H](CC(=O)O)NC(=O)c1cc(OC[C@](C)(O)C2CC2)n(-c2ccccc2F)n1 (single isomer, unassigned) [Example 763]	< 100
CS(=O)(=O)c1ccc(C(CC(=O)O)NC(=O)c2cc(O)n(-c3ccccc3F)n2)cc1 (stereo not shown) [Example 603, 3-{[1-(2-Fluoro-phenyl)-5-hydroxy-1H-pyrazole-3-carbonyl]-amino}-3-(4-methanesulfonyl-phenyl)-propionic acid]	1000 to 30000
COc1cc(C(=O)NC(CC(=O)O)c2cccc(F)c2C)nn1-c1ccccc1F (stereo not shown) [Example 664]	< 100
CC(C)(O)COc1cc(C(=O)N[C@@H](CC(=O)O)c2ccc(Cl)cc2Cl)nn1-c1ccccc1F [Example 751, (S)-3-(2,4-Dichloro-phenyl)-3-{[1-(2-fluoro-phenyl)-5-(2-hydroxy-2-methyl-propoxy)-1H-pyrazole-3-carbonyl]-amino}-propionic acid]	< 100
CCOCCOCCOc1cc(C(=O)N[C@@H](CC(=O)O)c2ccccc2C)nn1-c1ccccc1F [Example 637]	< 100
Cc1ccccc1[C@H](CC(=O)O)NC(=O)c1cc(OCC(C)O)n(-c2ccccc2F)n1 (stereo partly shown) [Example 749]	< 100

Same assay, conditions: read-out: Activity (2): Cathepsin A inhibitory activity, IC50 class

SMILES	IC50 [nM]
O=C(O)CC(NC(=O)c1cc(O)n(-c2cccc(F)c2)n1)c1ccc(OC(F)(F)F)cc1 (stereo not shown) [Example 315]	100 to 1000
O=C(O)C[C@H](NC(=O)c1cc(O)n(-c2ccccc2F)n1)c1cccc(Cl)c1 [Example 401]	100 to 1000
O=C(O)CC(NC(=O)c1cc(O)n(-c2cccc(F)c2)n1)c1cccc(Cl)c1Cl (stereo not shown) [Example 314]	< 100
O=C(O)CC(NC(=O)c1cc(O)n(-c2cccc(F)c2)n1)c1ccc(Cl)c(Cl)c1 (stereo not shown) [Example 328]	100 to 1000
CC(C)[C@](C)(O)COc1cc(C(=O)N[C@@H](CC(=O)O)c2ccccc2F)nn1-c1ccccc1F [Example 835, (S)-3-(2-Fluoro-phenyl)-3-{[1-(2-fluoro-phenyl)-5-((S)-2-hydroxy-2,3-dimethyl-butoxy)-1H-pyrazole-3-carbonyl]-amino}-propionic acid]	< 100
Cc1cc(F)ccc1C(CC(=O)O)NC(=O)c1cc(O)n(-c2ccccc2)n1 (stereo not shown) [Example 85]	100 to 1000
COc1ccc(C(CC(=O)O)NC(=O)c2cc(O)n(-c3ccc(F)c(Cl)c3)n2)c(F)c1 (stereo not shown) [Example 88]	1000 to 30000
Cc1ccc(C)c(-n2nc(C(=O)NC(CC(=O)O)CC(C)C)cc2O)c1 (stereo not shown) [Example 38]	1000 to 30000
O=C(O)CC(NC(=O)c1cc(O)n(-c2ccc(Cl)cc2)n1)c1ccc(Cl)cc1F (stereo not shown) [Example 286]	1000 to 30000
COc1ccc(-n2nc(C(=O)N[C@@H](CC(=O)O)c3ccccc3C)cc2O)cc1 [Example 87]	100 to 1000
O=C(O)C[C@H](NC(=O)c1cc(O)n(-c2ccccc2F)n1)c1ccc(Cl)cc1 [Example 120]	100 to 1000
O=C(O)CC(NC(=O)c1cc(O)n(-c2ccccc2)n1)c1ccc(F)c(F)c1 (stereo not shown) [Example 60]	1000 to 30000
O=C(O)CC(NC(=O)c1cc(O)n(-c2cccc(F)c2)n1)c1cccc(C(F)(F)F)c1Cl (stereo not shown) [Example 323]	100 to 1000
CC(C)[C@@](C)(O)COc1cc(C(=O)NCC(C(=O)O)c2ccccc2)nn1-c1ccccc1F (stereo partly drawn) [Example 827, 3-{[1-(2-Fluoro-phenyl)-5-((R)-2-hydroxy-2,3-dimethyl-butoxy)-1H-pyrazole-3-carbonyl]-amino}-2-phenyl-propionic acid]	100 to 1000
O=C(O)C[C@H](NC(=O)c1cc(O)n(-c2cccc(F)c2)n1)c1cccc(F)c1 [Example 312]	100 to 1000
O=C(O)C[C@H](NC(=O)c1cc(O)n(-c2ccccc2F)n1)c1cccc(Cl)c1Cl [Example 399]	< 100
Cc1ccc(C)c(C(CC(=O)O)NC(=O)c2cc(O)n(-c3ccc(F)cc3)n2)c1 (stereo not shown) [Example 359]	1000 to 30000
CC(C)(C)c1ccc(C(CC(=O)O)NC(=O)c2cc(O)n(-c3ccccc3)n2)cc1 (stereo not shown) [Example 66]	1000 to 30000
Cc1ccc(C)c(-n2nc(C(=O)NC(CCc3ccccc3)CC(=O)O)cc2O)c1 (stereo not shown) [Example 34]	1000 to 30000
O=C(O)CC(NC(=O)c1cc(O)n(-c2ccc(F)cc2F)n1)c1cccc(C(F)(F)F)c1F (stereo not shown) [Example 385, 3-{[1-(2,4-Difluoro-phenyl)-5-hydroxy-1H-pyrazole-3-carbonyl]-amino}-3-(2-fluoro-3-trifluoromethyl-phenyl)-propionic acid]	< 100

Same assay, conditions: recombinant human cathepsin A 833 ng/ml, Bodipy FL-labeled bradykinin 2 μM, pH 5.5; read-out: CATH-A IC50

SMILES	IC50 [nM]
Cc1c(F)cccc1C(CC(=O)O)NC(=O)c1cc(O)n(-c2ccc(Cl)cc2)n1 (stereo not shown) [Example 468, 3-{[1-(4-Chloro-phenyl)-5-hydroxy-1H-pyrazole-3-carbonyl]-amino}-3-(3-fluoro-2-methyl-phenyl)-propionic acid]	280
Cc1ccccc1[C@H](CC(=O)O)NC(=O)c1cc(OC[C@H](O)C(C)(C)C)n(-c2ccccc2F)n1 (single isomer, unassigned) [Example 745]	4.7
O=C(O)CC(NC(=O)c1cc(O)n(-c2ccccc2)n1)c1cccc2c1OC(F)(F)O2 (stereo not shown) [Example 496, 3-(2,2-Difluoro-benzo[1,3]dioxol-4-yl)-3-[(5-hydroxy-1-phenyl-1H-pyrazole-3-carbonyl)-amino]-propionic acid]	167
O=C(O)CC(NC(=O)c1cc(O)n(-c2ccc(F)cc2F)n1)c1cccc(C(F)(F)F)c1F (stereo not shown) [Example 385, 3-{[1-(2,4-Difluoro-phenyl)-5-hydroxy-1H-pyrazole-3-carbonyl]-amino}-3-(2-fluoro-3-trifluoromethyl-phenyl)-propionic acid]	60.7

Same assay, conditions: recombinant human cathepsin A; read-out: Activity (2): Cathepsin A inhibitory activity, IC50 class

SMILES	IC50 [nM]
Cc1c(F)cccc1C(CC(=O)O)NC(=O)c1cc(O)n(-c2ccc(Cl)cc2)n1 (stereo not shown) [Example 468, 3-{[1-(4-Chloro-phenyl)-5-hydroxy-1H-pyrazole-3-carbonyl]-amino}-3-(3-fluoro-2-methyl-phenyl)-propionic acid]	100 to 1000
O=C(O)CC(NC(=O)c1cc(O)n(-c2ccnc(Cl)c2)n1)c1ccc(-c2ccccc2)cc1 (stereo not shown) [Example 439]	100 to 1000
COc1cc(C(=O)N[C@@H](CC(=O)Nc2ccn(C)n2)c2ccccc2C)nn1-c1ccccc1F [Example 930, 1-(2-Fluoro-phenyl)-5-methoxy-1H-pyrazole-3-carboxylic acid [(S)-2-(1-methyl-1H-pyrazol-3-ylcarbamoyl)-1-o-tolyl-ethyl]-amide]	100 to 1000
COc1cc(C(=O)N[C@@H](CC(=O)NCc2ccncc2)c2ccccc2C)nn1-c1ccccc1F [Example 916, 1-(2-Fluoro-phenyl)-5-methoxy-1H-pyrazole-3-carboxylic acid {(S)-2-[(pyridin-4-ylmethyl)-carbamoyl]-1-o-tolyl-ethyl}-amide]	1000 to 30000
O=C(O)CC(NC(=O)c1cc(O)n(-c2ccccc2F)n1)c1cc(F)ccc1F (stereo not shown) [Example 517]	100 to 1000
COc1cc(C(=O)N[C@@H](CC(=O)NCC(C)C)c2ccccc2C)nn1-c1ccccc1F [Example 919, 1-(2-Fluoro-phenyl)-5-methoxy-1H-pyrazole-3-carboxylic acid ((S)-2-isobutylcarbamoyl-1-o-tolyl-ethyl)-amide]	1000 to 30000
COc1ccc([C@H](CC(=O)O)NC(=O)c2cc(O)n(-c3ccc(F)cc3)n2)cn1 [Example 438]	100 to 1000
O=C(O)CC(NC(=O)c1cc(O)n(-c2ccccc2)n1)c1cccc2c1OC(F)(F)O2 (stereo not shown) [Example 496, 3-(2,2-Difluoro-benzo[1,3]dioxol-4-yl)-3-[(5-hydroxy-1-phenyl-1H-pyrazole-3-carbonyl)-amino]-propionic acid]	100 to 1000
